In patent US20250270246A1, “LINCOSAMIDES AND USES THEREOF” (President and Fellows of Harvard College, priority 2022, published 2025):
Where a name gives a salt, the structure may show the parent alone. Read-outs that look alike come from different tables or passages of the source.

Key:
Experiment in all cases: MIC by broth microdilution (CLSI)
Assay type in all cases: cell-based
[1] = test system: S. pyogenes HAV#033, c-ermB; settings: Streptococcus pyogenes, read-out: MIC S. pyogenes HAV#033, c-ermB
How it was run: (§1)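 Lowest concentration (μg/mL) without visible bacterial growth after 24 h was taken as MIC, using CLSI microdilution at 5×10^5 CFU/mL in CaMHB. Chelex 100 treatment of the broth applied only to P. aeruginosa.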

E. coli HAV#040, LptD = settings: Escherichia coli, 24 h, read-out: MIC E. coli HAV#040, LptD
How it was run: as §1

[2] = test system: K. oxytoca HAV#450; Clinical; settings: Klebsiella oxytoca, read-out: MIC K. oxytoca HAV#450
How it was run: as §1

[3] = test system: S. aureus HAV#031, c-ermA; settings: Staphylococcus aureus, read-out: MIC S. aureus HAV#031, c-ermA
How it was run: as §1

S. aureus HAV#216, cfr = settings: Staphylococcus aureus, read-out: MIC S. aureus HAV#216, cfr
How it was run: as §1

[4] = test system: E. faecium HAV#318, VRE; clinical; settings: Enterococcus faecium, read-out: MIC E. faecium HAV#318, VRE
How it was run: as §1

[5] = test system: E. coli ATCC 25922 (HAV#006); settings: Escherichia coli, ATCC25922, 24 h, read-out: MIC E. coli ATCC 25922
How it was run: as §1

[6] = test system: K. pneumoniae HAV#402, FQ-R; settings: Klebsiella pneumoniae, read-out: MIC K. pneumoniae HAV#402, FQ-R
How it was run: as §1

[7] = test system: A. baumannii ATCC 19606 (HAV#010); settings: Acinetobacter baumannii, ATCC19606, 24 h, read-out: MIC A. baumannii ATCC 19606
How it was run: as §1

[8] = test system: E. faecalis ATCC 29212 (HAV#005); settings: Enterococcus faecalis, ATCC29212, 24 h, read-out: MIC E. faecalis ATCC 29212
How it was run: as §1

E. coli HAV#038, ΔTolC = settings: Escherichia coli, 24 h, read-out: MIC E. coli HAV#038, ΔTolC
How it was run: as §1

[9] = test system: S. aureus ATCC 29213 (HAV#001); settings: Staphylococcus aureus, ATCC29213, 24 h, read-out: MIC S. aureus ATCC 29213
How it was run: as §1

S. aureus Clinical (cfr) = settings: Staphylococcus aureus, 24 h, read-out: MIC S. aureus Clinical (cfr)
How it was run: as §1

E. coli ΔtolC = settings: Escherichia coli, 24 h, read-out: MIC E. coli ΔtolC, ΔtolC; CaMHB, 24 h incubation
How it was run: as §1

E. coli lptD mutant = settings: Escherichia coli, 24 h, read-out: MIC E. coli lptD mutant, lptD mutant / ΔlptD mutant; CaMHB, 24 h incubation
How it was run: as §1

S. pneumoniae c-ermB = settings: Streptococcus pneumoniae, 24 h, read-out: MIC S. pneumoniae c-ermB
How it was run: as §1

S. aureus MMX 3035 = settings: Staphylococcus aureus, MMX3035, 24 h, read-out: MIC S. aureus MMX 3035
How it was run: as §1

K. pneumoniae JMI-991193 = settings: Klebsiella pneumoniae, JMI991193, 24 h, read-out: MIC K. pneumoniae JMI-991193
How it was run: as §1

E. faecium JMI-990536 = settings: Enterococcus faecium, JMI990536, 24 h, read-out: MIC E. faecium JMI-990536
How it was run: as §1

[10] = HAV#006, ATCC 25922, CaMHB, 24 h incubation
[11] = HAV#010, ATCC 19606, CaMHB, 24 h incubation
[12] = HAV#005, ATCC 29212, CaMHB, 24 h incubation
[13] = HAV#001, ATCC 29213, CaMHB, 24 h incubation
[14] = Clinical (cfr), CaMHB, 24 h incubation
[15] = MMX 3035, CaMHB, 24 h incubation
[16] = JMI-991193, CaMHB, 24 h incubation
[17] = JMI-990536, CaMHB, 24 h incubation

| Compound | MIC ([1]; 24 h) [µg/mL] | MIC (E. coli HAV#040, LptD) [µg/mL] | MIC ([2]; 24 h) [µg/mL] | MIC ([3]; 24 h) [µg/mL] | MIC (S. aureus HAV#216, cfr; 24 h) [µg/mL] | MIC ([4]; 24 h) [µg/mL] | MIC [5] [µg/mL] | MIC ([6]; 24 h) [µg/mL] | MIC [7] [µg/mL] | MIC [8] [µg/mL] | MIC (E. coli HAV#038, ΔTolC) [µg/mL] | MIC [9] [µg/mL] | MIC [5, 10] [µg/mL] | MIC [7, 11] [µg/mL] | MIC [8, 12] [µg/mL] | MIC [9, 13] [µg/mL] | MIC (E. coli ΔtolC) [µg/mL] | MIC (E. coli lptD mutant) [µg/mL] | MIC (S. pneumoniae c-ermB) [µg/mL] | also measured |
| --- | --- | --- | --- | --- | --- | --- | --- | --- | --- | --- | --- | --- | --- | --- | --- | --- | --- | --- | --- | --- |
| CC(C)C[C@@H]1CCO[C@@H]2[C@H](CN[C@@H]2C(=O)N[C@H]2C3OC(SCC/C=C\[C@H]2C)C(O)C(O)C3O)C1 (single isomer, unassigned) [FSA1507066, formate] | 0.125 | 0.25 | 4 | 0.5 | 0.5 | 0.25 | 4 | 16 | 2 | ≤ 0.06 | 0.125 | ≤ 0.06 | – | – | – | – | – | – | – | – |
| CC(C)C[C@@H]1CCO[C@@H]2[C@H](CN[C@@H]2C(=O)N[C@H]2C3OC(SCC/C=C/[C@@H]2C)C(O)C(O)C3O)C1 (single isomer, unassigned) [FSA1507068, formate salt] | – | 0.5 | – | – | – | – | – | – | – | – | 0.5 | – | 4 | 4 | 0.125 | ≤ 0.06 | – | – | – | MIC ([1]; c-ermB, CaMHB, 24 h incubation): 0.25 µg/mL; MIC ([2]; CaMHB, 24 h incubation): 8 µg/mL; MIC ([3]; c-ermA, CaMHB, 24 h incubation): 0.5 µg/mL; MIC (S. aureus HAV#216, cfr; cfr, CaMHB, 24 h incubation): 2 µg/mL; MIC ([4]; CaMHB, 24 h incubation): 0.5 µg/mL; MIC ([6]; FQ-R, CaMHB, 24 h incubation): 8 µg/mL |
| CC(C)C[C@@H]1CCO[C@@H]2[C@@H](C1)CN(C)[C@@H]2C(=O)N[C@H]1C2OC(SCC/C=C\[C@H]1C)C(O)C(O)C2O (single isomer, unassigned) [FSA1508001, formate] | 0.25 | 0.25 | 16 | 0.5 | 1 | 0.25 | 8 | 64 | 2 | 0.125 | 0.25 | 0.25 | – | – | – | – | – | – | – | – |
| CC(C)C[C@@H]1CCO[C@@H]2[C@H](CN[C@@H]2C(=O)N[C@@H]2C/C=C\CCS[C@H]3O[C@H]2[C@H](O)[C@H](O)[C@H]3O)C1 [FSA1507013, (4S,5aS,8S,8aR)-4-isobutyl-8-(((1R,8R,9R,10R,11S,12R,Z)-10,11,12-trihydroxy-13-oxa-2-thiabicyclo[7.3.1]tridec-5-en-8-yl)carbamoyl) octahydro-2H-oxepino[2,3-c]pyrrol-7-ium formate] | 0.5 | 0.5 | 2 | 4 | – | – | 2 | 8 | 2 | 0.125 | 0.125 | 0.125 | – | – | – | – | – | – | – | – |
| CC(C)C[C@@H]1CCO[C@@H]2[C@@H](C1)CN(C)[C@@H]2C(=O)N[C@@H]1C/C=C\CCS[C@H]2O[C@H]1[C@H](O)[C@H](O)[C@H]2O [FSA1508003, (4S,5aS,8S,8aR)-4-isobutyl-7-methyl-8-(((1R,8R,9R,10R,11S,12R,Z)-10,11,12-trihydroxy-13-oxa-2-thiabicyclo[7.3.1]tridec-5-en-8-yl)carbamoyl) octahydro-2H-oxepino[2,3-c]pyrrol-7-ium formate] | 2 | 0.25 | 8 | 2 | 8 | 1 | 4 | 16 | 2 | 0.125 | 0.25 | 0.125 | – | – | – | – | – | – | – | – |
| CC(C)C[C@@H]1CCO[C@@H]2[C@H](CN[C@@H]2C(=O)N[C@@H]2C/C=C\C[C@H](CO)S[C@H]3O[C@H]2[C@H](O)[C@H](O)[C@H]3O)C1 [FSA1606033, (4S,5aS,8S,8aR)-4-isobutyl-N-((1R,3R,8R,9R,10R,11S,12R,Z)-10,11,12-trihydroxy-3-(hydroxymethyl)-13-oxa-2-thiabicyclo[7.3.1]tridec-5-en-8-yl) octahydro-2H-oxepino[2,3-c]pyrrole-8-carboxamide hydrochloride salt] | – | – | – | – | – | – | – | – | – | – | – | – | 16 | 64 | 1 | 1 | 1 | 4 | 4 | MIC (S. aureus Clinical (cfr); [14]): 32 µg/mL; MIC (S. aureus MMX 3035; [15]): 16 µg/mL; MIC (K. pneumoniae JMI-991193; [16]): > 64 µg/mL; MIC (E. faecium JMI-990536; [17]): 16 µg/mL |
| CC(C)C[C@@H]1CCO[C@@H]2[C@H](CN[C@@H]2C(=O)N[C@@H]2C/C=C\C[C@@H](CO)S[C@H]3O[C@H]2[C@H](O)[C@H](O)[C@H]3O)C1 [FSA1606034, (4S,5aS,8S,8aR)-4-isobutyl-N-((1R,3S,8R,9R,10R,11S,12R,Z)-10,11,12-trihydroxy-3-(hydroxymethyl)-13-oxa-2-thiabicyclo[7.3.1]tridec-5-en-8-yl) octahydro-2H-oxepino[2,3-c]pyrrole-8-carboxamide hydrochloride salt] | – | – | – | – | – | – | – | – | – | – | – | – | 64 | > 64 | 2 | 1 | 2 | 8 | 16 | MIC (S. aureus Clinical (cfr); [14]): > 64 µg/mL; MIC (S. aureus MMX 3035; [15]): 64 µg/mL; MIC (K. pneumoniae JMI-991193; [16]): > 64 µg/mL; MIC (E. faecium JMI-990536; [17]): > 64 µg/mL |
| CC(C)C[C@@H]1CCO[C@@H]2[C@H](CN[C@@H]2C(=O)N[C@H]2[C@H]3O[C@H](S[C@H](c4cn(-c5cccc(Cl)c5)nn4)C/C=C\[C@H]2C)[C@H](O)[C@@H](O)[C@H]3O)C1 [FSA1609015, (4S,5aS,8S,8aR)—N-((1R,3S,7R,8R,9R,10R,11S,12R,Z)-3-(1-(3-chlorophenyl)-1H-1,2,3-triazol-4-yl)-10,11,12-trihydroxy-7-methyl-13-oxa-2-thiabicyclo[7.3.1]tridec-5-en-8-yl)-4-isobutyloctahydro-2H-oxepino[2,3-c]pyrrole-8-carboxamide formate salt] | – | – | – | – | – | – | 8 | – | 8 | 2 | – | 1 | – | – | – | – | 2 | 2 | 0.25 | MIC (S. aureus Clinical (cfr)): 2 µg/mL; MIC (S. aureus MMX 3035): 2 µg/mL; MIC (K. pneumoniae JMI-991193): 32 µg/mL; MIC (E. faecium JMI-990536): 0.5 µg/mL |
